Holding throughout (format): cell-based, human
Test [1] relates to VWF expression level in hPSC-EC. Briefly: VWF and CD144 protein in hPSC-EC by immunoblot. The protocol:
Whole cells lysate was extracted using 1× RIPA lysis and extraction buffer (Thermo Fisher Scientific) supplemented with 1× protease inhibitor cocktail (Sigma Aldrich) and 1 μL Benzonase nuclease (Sigma Aldrich) per sample. Each sample was supplied with 100 mM DTT (Sigma Aldrich) and 1× Laemmli sample buffer (Bio-Rad) and heated at 95° C. for 5 minutes. The primary antibodies above were added to samples and followed by anti-rabbit or anti-mouse IgG secondary antibody conjugated with HRP (Thermo Fisher Scientific; 31460 or 31430). Immunoblots were imaged in the presence of Pierce ECL Western Blotting substrate (Thermo Fisher Scientific) and quantified using Fiji software.
Ten compounds were added separately to hPSC culture medium on day 6 of the cell differentiation and maintained in the media thereafter. The untreated cell culture medium was EGM with additional 20 ng/ml VEGF, 20 ng/ml FGF, and 1 μM Chir99021. Based on untreated cell culture medium, we tested the following additional concentrations of compounds: VEGF (30, 70, 120 ng/ml, Peprotech 100-20), FGF (30, 70, 120 ng/ml, PeproTech 100-18B), human transforming growth factor β1 (TGFβ1, 1, 3, 10 ng/ml, R&D Systems 240-B), lipopolysaccharide (LPS, 1, 3, 10 ng/ml, Santa Cruz sc-3535), human interferon gamma (IFN, 1, 3, 10 ng/ml, Peprotech 300-02), human noggin (1, 3, 10 ng/ml, Peprotech, 120-10C), Chir99021 (1, 3, 10 µM, Reprocell 04-0004-10), Smoothened agonist (SAG, 1, 3, 10 μM, Cayman Chemical 11914), BMP4 (1, 3, 10, 50 ng/ml, R&D Systems 314-BP), or DAPT (1, 3, 10 µM, Tocris 2634). Concentrations of these compounds that were likely to be safe and efficacious were used based on the literature and previous experience. To treat HUVEC with DAPT (Tocris 2634), 0/10/30 μM DAPT was added to the cell culture medium EGM on day 2 after cell passaging and maintained in the media thereafter. The cell culture medium with corresponding compound was changed every two days until cell fixation or cell lysis experiment on day 10-14 for hSPC-EC or day 7-9 for HUVEC.
(A western blot detects proteins with antibodies after separation by electrophoresis.)

Another test concerns VWF level in HUVEC. The test can be described thus: VWF level in HUVEC treated with DAPT (immunofluorescence and immunoblot). The protocol: (§1) Cells were fixed with 4% paraformaldehyde in 1×PBS for 15 minutes and subsequently washed three times with 1×PBS. For immunofluorescence, fixed samples were blocked with 5% donkey serum plus 0.1% Triton X-100 in 1×PBS, incubated overnight in 3% bovine serum albumin (BSA) (Sigma Aldrich)+1×PBS with primary antibodies, washed, incubated with secondary antibodies, washed and imaged. Primary antibodies included antibodies for VWF (Agilent Technologies; A008202), β-Actin (Cell Signaling Technology; 4970); DAPI (Cayman Chemical Company; 14285), Angiopoietin 2 (R&D Systems; AF623), CD31 (BD Biosciences; 555444), CD144 (BD Biosciences; 555661), and Notch1 (Cell Signaling Technology; 3608S). Fluorescence labeled antibodies included anti-rabbit IgG secondary antibody Alexa Fluor 488 (Thermo Fisher Scientific; A32731), anti-mouse IgG secondary antibody Alexa Fluor 555 (Thermo Fisher Scientific; A21422), and FITC anti-VWF antibody (Abcam; ab8822). To compare different experimental conditions, images were collected at identical microscopy setup using wide field or confocal fluorescence microscope. Image analysis was performed using Fiji software.
Whole cells lysate was extracted using 1× RIPA lysis and extraction buffer (Thermo Fisher Scientific) supplemented with 1× protease inhibitor cocktail (Sigma Aldrich) and 1 μL Benzonase nuclease (Sigma Aldrich) per sample. […]

Test [2] deals with VWF expression level in hPSC-EC. The test can be described thus: VWF expression level in hPSC-EC by immunofluorescence. The protocol:
as §1, with “Image analysis was performed using Fiji software.” left out
hPSC-EC were treated with blood plasma or compounds to test their effects on VWF expression level in cells. […] Due to the high fluorescence background in 40% and 80% plasma treated cells, we only used less than 40% plasma to treat cells for immunofluorescence imaging. […]

Test [3] relates to VWF at the hPSC-EC surface. Briefly: VWF string formation assay under flow after PMA stimulation. To be noted: 3 μM DAPT from day 6; 100 ng/mL PMA 20 min, flow 2.5 dyn/cm^2 5 min. The protocol: The hPSC-EC from day 5 of cell differentiation were seeded in a flow chamber (ibidi GmbH, μ-slide VI 0.4, 17×3.8×0.4 mm) precoated with 2.5 mg/mL collagen (Corning, Rate Tail Collagen Type I). Cells were fed by EGM endothelial cell growth medium+20 ng/ml recombinant human VEGF165+20 ng/mL recombinant human FGF-basic+1 μM Chir-99021 until day 12 of cell differentiation. The flow chamber was washed by 100 μl EBM endothelial cell growth basal medium (Lonza) twice. Cells were stimulated in EBM medium with 100 ng/mL PMA at stasis at 37° C. and 5% CO2 for 20 minutes and then followed by flow (2.5 dyn/cm^2 wall shear stress) using a syringe pump for 5 minutes. After flow stopped, the flow chamber was blocked by 6% BSA (Sigma Aldrich) in EBM medium for 10 minutes. […] Cells were washed by EBM medium for three times and imaged under Olympus wide field fluorescence microscope. […]
VWF forms strings on HUVEC surface upon stimulation by agonists such as phorbol 12-myristate 13-acetate (PMA) (FIG. 10A). […] The effect of enhancing VWF level on VWF string formation was then evaluated. hPSC-EC were transferred into a microfluidic channel on day 5 of differentiation and treated with 3 μM DAPT from day 6 onwards. […] VWF attached to the EC surface was detected live by FITC-labeled anti-VWF antibody, which was introduced under flow. […]

In the next test the test system is hPSC-EC. Briefly: hPSC-EC maturation: cell size and CD144 junction morphology. To be noted: 0 or 3 μM DAPT. The protocol: as §1, with “Image analysis was performed using Fiji software.” left out
hPSC-EC were treated with blood plasma or compounds to test their effects on VWF expression level in cells. […] Due to the high fluorescence background in 40% and 80% plasma treated cells, we only used less than 40% plasma to treat cells for immunofluorescence imaging.

On to `C[C@H](NC(=O)Cc1cc(F)cc(F)c1)C(=O)N[C@H](C(=O)OC(C)(C)C)c1ccccc1` [DAPT], for which, in test [1] (DAPT-treated hPSC-EC), the “CD144 marker for EC” value is “does not affect CD144” and the “VWF protein by immunoblot” value is “confirmed the increase in VWF protein”. In addition, in test [1] (hPSC-EC, DAPT 1, 3, 10 μM), the “DAPT final concentration at which VWF protein peaks (immunoblot)” value is ~3 µM. Moreover, in the test on VWF level in HUVEC (0/10/30 μM DAPT), the “VWF level in HUVEC by immunofluorescence and immunoblot” value is on record as “enhanced VWF level with increased DAPT concentrations”. Besides, the “VWF increase compared to untreated controls” value in the test on VWF level in HUVEC (HUVEC, 10 μM DAPT) is reported as ~1.7 times. The “Levels of VWF by immunofluorescence in screen of ten compounds” value in test [2] (added day 6 of differentiation, DAPT 1 μM) is listed as “substantially increased levels of VWF”. Besides, the “Increase of VWF fluorescence intensity vs untreated control, repeated trials” value in test [2] (final concentration of 1 μM DAPT) is recorded as “approximately two-fold”. In test [3], the “VWF attached to the EC surface of control hPSC-EC” value is reported as “numerous foci of VWF at the cell surface” and the VWF string formation entry is recorded as “formed strings attached to the EC surface”. Further, the “Changes in hPSC-EC size or junctional morphology” value in the test with hPSC-EC is “did not induce the changes”.

The values above are taken from patent US20240376437A1, “TARGETING VON WILLEBRAND FACTOR TO MODEL DISEASE IN HUMAN PLURIPOTENT STEM CELLS” (University of Washington, priority 2023, published 2024).
